Data published in ChEMBL document CHEMBL1143570, “Architecture of the human urotensin II receptor: comparison of the binding domains of peptide and non-peptide urotensin II agonists” (J Med Chem, 2005).

Target: T1, Urotensin-2 receptor (Homo sapiens, UniProt Q9UKP6)
T1 sequence (Q9UKP6 whole entry): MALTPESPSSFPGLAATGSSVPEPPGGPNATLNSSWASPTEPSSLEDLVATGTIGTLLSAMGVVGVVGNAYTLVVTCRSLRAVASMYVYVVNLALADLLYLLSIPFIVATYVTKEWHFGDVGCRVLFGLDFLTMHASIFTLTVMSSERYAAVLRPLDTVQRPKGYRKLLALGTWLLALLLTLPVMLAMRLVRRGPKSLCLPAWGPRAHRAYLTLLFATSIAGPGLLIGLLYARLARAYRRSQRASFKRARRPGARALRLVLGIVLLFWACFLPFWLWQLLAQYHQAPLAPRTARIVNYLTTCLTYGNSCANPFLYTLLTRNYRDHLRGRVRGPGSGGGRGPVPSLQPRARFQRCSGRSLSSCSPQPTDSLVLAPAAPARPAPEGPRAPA
Experiment: Agonist activity for human Urotensin 2 receptor
Format: functional

EC50 [µM]	Compound
0.3	CN(C)CCC1(c2ccc(Cl)cc2)Cc2ccccc2C(=O)O1 (stereo not drawn)
5	CCN(CC)CCC1=C(c2ccccc2)NC(=O)N(C)C1c1ccc(Cl)cc1 (stereo not drawn)
6.3	CCN(CC)CCC1C(c2ccccc2)=Nc2ccccc2SC1c1ccc(Cl)cc1 (stereo not drawn)
